Legend:
[1] = Activation of rabbit sGC assessed as induction of preconstricted aortic ring relaxation; details: Oryctolagus cuniculus
[2] = Tmax in human; format: ADME
[3] = Half life in human; format: ADME
[4] = molecular target: T1, Endothelin receptor type B (Homo sapiens, UniProt P24530); test: Binding affinity to human placenta ETB; format: tissue-based
T1 sequence (P24530 whole entry): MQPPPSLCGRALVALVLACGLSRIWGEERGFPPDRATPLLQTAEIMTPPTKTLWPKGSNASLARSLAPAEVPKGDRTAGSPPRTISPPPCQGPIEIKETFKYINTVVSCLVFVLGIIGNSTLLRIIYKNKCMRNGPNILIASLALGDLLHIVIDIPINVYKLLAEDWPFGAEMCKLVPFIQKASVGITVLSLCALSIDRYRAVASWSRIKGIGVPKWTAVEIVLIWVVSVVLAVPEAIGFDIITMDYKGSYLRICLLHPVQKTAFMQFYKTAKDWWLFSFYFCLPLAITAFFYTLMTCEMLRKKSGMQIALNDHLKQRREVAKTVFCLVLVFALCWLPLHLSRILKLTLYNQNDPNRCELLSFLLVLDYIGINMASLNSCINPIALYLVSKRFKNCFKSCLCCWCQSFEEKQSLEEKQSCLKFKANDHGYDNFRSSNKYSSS

Endothelin-1 receptor = molecular target: T2, Endothelin-1 receptor (Homo sapiens, UniProt P25101); test: Binding affinity to recombinant human ETA
T2 sequence (P25101 whole entry): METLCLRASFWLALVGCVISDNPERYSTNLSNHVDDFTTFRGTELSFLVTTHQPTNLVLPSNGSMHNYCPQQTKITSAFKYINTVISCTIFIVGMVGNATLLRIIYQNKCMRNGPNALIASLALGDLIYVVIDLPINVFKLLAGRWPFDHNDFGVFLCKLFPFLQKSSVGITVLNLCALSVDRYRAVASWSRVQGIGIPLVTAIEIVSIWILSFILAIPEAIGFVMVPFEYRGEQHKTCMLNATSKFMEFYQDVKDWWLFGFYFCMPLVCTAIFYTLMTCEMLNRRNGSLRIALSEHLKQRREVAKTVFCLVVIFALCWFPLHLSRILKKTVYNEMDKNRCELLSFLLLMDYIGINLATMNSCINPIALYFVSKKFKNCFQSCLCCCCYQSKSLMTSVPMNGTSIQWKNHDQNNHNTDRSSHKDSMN

[5] = Half life in po dosed human; format: ADME, organism-based; details: in vivo
[6] = Tmax in po dosed human; format: ADME, organism-based; details: in vivo

Row | Compound | IC50 [1] [nM] | half-life [3] [h] | other results
1 | OCc1ccc(-c2nn(Cc3ccccc3F)c3ccccc23)o1 | 4900 |  | 
2 | Nc1ccnc(-c2nn(Cc3ccccc3F)c3ncccc23)n1 | 270 |  | 
3 | Nc1nc(-c2nn(Cc3ccccc3F)c3ncccc23)nc(N)c1N1CCOCC1 | 100 |  | 
4 | CCCOc1ccc(S(=O)(=O)NCCC2CCCN2C)cc1-c1nc2c(CCC)nn(C)c2c(=O)[nH]1 (stereo not drawn) |  | 12.3 | Tmax [2]: 0.8 h
5 | O=C(O)COC[C@H]1CC[C@H](COC(=O)N(c2ccccc2)c2ccc(Cl)cc2)CC1 |  | 24 | 
6 | OCc1ccc(-c2nn(Cc3ccccc3)c3ccccc23)o1 | 10000 |  | 
7 | OCc1ccc(-c2nn(Cc3ccccc3F)c3ncccc23)o1 | 1700 |  | 
8 | Nc1nc(-c2nn(Cc3ccccc3F)c3ncccc23)ncc1C1CC1 | 304 |  | 
9 | OC(CNc1nc(-c2cc(-c3ccon3)n(Cc3ccccc3F)n2)ncc1F)(C(F)(F)F)C(F)(F)F |  | 24 | 
10 | O=S(=O)(Nc1ncnc(OCCO)c1-c1ccccc1)c1ccc(C(F)(F)F)cc1 |  |  | IC50 [4]: 2000 nM; IC50 (Endothelin-1 receptor): 18000 nM
11 | CN1CC(=O)N2[C@H](c3ccc4c(c3)OCO4)c3[nH]c4ccccc4c3C[C@@H]2C1=O |  | 17.5 | 
12 | NC(=O)[C@](O)(CNc1nc(-c2cc(-c3ccon3)n(Cc3ccccc3F)n2)ncc1F)C(F)(F)F [OLINCIGUAT] |  | 30 | Tmax [2]: 2 h
13 | COC(=O)N(C)c1c(N)nc(-c2nn(Cc3ccccc3F)c3ncccc23)nc1N [RIOCIGUAT] | 120 |  | half-life [5]: 5 h; Tmax [6]: 0.5 h

Source: ChEMBL document CHEMBL5244271, “Targeted Drugs for Treatment of Pulmonary Arterial Hypertension: Past, Present, and Future Perspectives” (J Med Chem, 2020)
